Test results as given in US11331369B2, “Endoparasitic depsipeptides” (Zoetis Services LLC, priority 2017, dated 2022).

How the values were obtained:
[1] = test system: 4th stage larvae (L4) of Dirofilaria immitis; assay: Dirofilaria immitis, L4 Stage (DiL4) In Vitro Assay; assay type: cell-based; conditions: Dirofilaria immitis, 72 h, read-out: DiL4 Minimum Effective Dose (MED), approximately 72 hours incubation; L4 larvae assessed for survival or paralysis
[2] = test system: third stage larvae of Haemonchus contortus; assay: Haemonchus contortus L3 (HcL3) Assay; assay type: cell-based; conditions: 96 h, read-out: HcL3 Minimum Effective Dose (MED)

SMILES	minimal effective concentration [1]	minimal effective concentration [2]
COC(C)c1ccnn1Cc1ccc(C[C@H]2OC(=O)[C@H](CC(C)C)N(C)C(=O)[C@@H](C)OC(=O)[C@H](CC(C)C)N(C)C(=O)[C@@H](Cc3ccc(Cn4nccc4C(C)OC)cc3)OC(=O)[C@H](CC(C)C)N(C)C(=O)[C@@H](C)OC(=O)[C@H](CC(C)C)N(C)C2=O)cc1 (stereo partly drawn) [Example 1b-212, (3S,6R,9S,12R,15S,18R,21S,24R)-3,9,15,21-tetraisobutyl-6,18-bis(4-((5-(1-methoxyethyl)-1H-pyrazol-1-yl)methyl)benzyl)-4,10,12,16,22,24-hexamethyl-1,7,13,19-tetraoxa-4,10,16,22-tetraazacyclotetracosan-2,5,8,11,14,17,20,23-octaone]	0.0001 to 0.001 µM	≤ 1 µM
CC(C)C[C@H]1C(=O)O[C@H](Cc2ccc(C3(n4cccn4)CCC3)cc2)C(=O)N(C)[C@@H](CC(C)C)C(=O)O[C@H](C)C(=O)N(C)[C@@H](CC(C)C)C(=O)O[C@H](Cc2ccc(C3(n4cccn4)CCC3)cc2)C(=O)N(C)[C@@H](CC(C)C)C(=O)O[C@H](C)C(=O)N1C [Example 1c-1, (3S,6R,9S,12R,15S,18R,21S,24R)-6,18-bis(4-(1-(1H-pyrazol-1-yl)cyclobutyl)benzyl)-3,9,15,21-tetraisobutyl-4,10,12,16,22,24-hexamethyl-1,7,13,19-tetraoxa-4,10,16,22-tetraazacyclotetracosan-2,5,8,11,14,17,20,23-octaone]	≤ 0.0001 µM	≤ 1 µM
CC(C)C[C@H]1C(=O)O[C@H](Cc2ccc(C3(n4cc(OC(C)C)cn4)CCC3)cc2)C(=O)N(C)[C@@H](CC(C)C)C(=O)O[C@H](C)C(=O)N(C)[C@@H](CC(C)C)C(=O)O[C@H](Cc2ccc(C3(n4cc(OC(C)C)cn4)CCC3)cc2)C(=O)N(C)[C@@H](CC(C)C)C(=O)O[C@H](C)C(=O)N1C [Example 1c-3, (3S,6R,9S,12R,15S,18R,21S,24R)-3,9,15,21-tetraisobutyl-6,18-bis(4-(1-(4-isopropoxy-1H-pyrazol-1-yl)cyclobutyl)benzyl)-4,10,12,16,22,24-hexamethyl-1,7,13,19-tetraoxa-4,10,16,22-tetraazacyclotetracosan-2,5,8,11,14,17,20,23-octaone]	≤ 0.0001 µM	≤ 1 µM
CC(C)C[C@H]1C(=O)O[C@H](Cc2ccc(C(C3CC3)n3cccn3)cc2)C(=O)N(C)[C@@H](CC(C)C)C(=O)O[C@H](C)C(=O)N(C)[C@@H](CC(C)C)C(=O)O[C@H](Cc2ccc(C(C3CC3)n3cccn3)cc2)C(=O)N(C)[C@@H](CC(C)C)C(=O)O[C@H](C)C(=O)N1C (stereo partly drawn) [Example 1c-4, (3S,6R,9S,12R,15S,18R,21S,24R)-6,18-bis(4-(cyclopropyl(1H-pyrazol-1-yl)methyl)benzyl)-3,9,15,21-tetraisobutyl-4,10,12,16,22,24-hexamethyl-1,7,13,19-tetraoxa-4,10,16,22-tetraazacyclotetracosan-2,5,8,11,14,17,20,23-octaone]	0.0001 to 0.001 µM	≤ 1 µM
CC(C)C[C@H]1C(=O)O[C@H](Cc2ccc(C(C)(C)n3cccn3)cc2)C(=O)N(C)[C@@H](CC(C)C)C(=O)O[C@H](C)C(=O)N(C)[C@@H](CC(C)C)C(=O)O[C@H](Cc2ccc(C(C)(C)n3cccn3)cc2)C(=O)N(C)[C@@H](CC(C)C)C(=O)O[C@H](C)C(=O)N1C [Example 1c-6, (3S,6R,9S,12R,15S,18R,21S,24R)-6,18-bis(4-(2-(1H-pyrazol-1-yl)propan-2-yl)benzyl)-3,9,15,21-tetraisobutyl-4,10,12,16,22,24-hexamethyl-1,7,13,19-tetraoxa-4,10,16,22-tetraazacyclotetracosan-2,5,8,11,14,17,20,23-octaone]	≤ 0.0001 µM	≤ 1 µM
CC(C)C[C@H]1C(=O)O[C@H](Cc2ccc(C(C)(C)n3cc(OC(C)C)cn3)cc2)C(=O)N(C)[C@@H](CC(C)C)C(=O)O[C@H](C)C(=O)N(C)[C@@H](CC(C)C)C(=O)O[C@H](Cc2ccc(C(C)(C)n3cc(OC(C)C)cn3)cc2)C(=O)N(C)[C@@H](CC(C)C)C(=O)O[C@H](C)C(=O)N1C [Example 1c-10, (3S,6R,9S,12R,15S,18R,21S,24R)-3,9,15,21-tetraisobutyl-6,18-bis(4-(2-(4-isopropoxy-1H-pyrazol-1-yl)propan-2-yl)benzyl)-4,10,12,16,22,24-hexamethyl-1,7,13,19-tetraoxa-4,10,16,22-tetraazacyclotetracosan-2,5,8,11,14,17,20,23-octaone]	≤ 0.0001 µM	≤ 1 µM
CC(C)C[C@H]1C(=O)O[C@H](Cc2ccc(Cn3cccn3)cc2)C(=O)N(C)[C@@H](CC(C)C)C(=O)O[C@H](C)C(=O)N(C)[C@@H](CC(C)C)C(=O)O[C@H](Cc2ccccc2)C(=O)N(C)[C@@H](CC(C)C)C(=O)O[C@H](C)C(=O)N1C [Example 2-1, (3S,6R,9S,12R,15S,18R,21S,24R)-6-benzyl-3,9,15,21-tetraisobutyl-4,10,12,16,22,24-hexamethyl-18-[[4-(pyrazol-1-ylmethyl)phenyl]methyl]-1,7,13,19-tetraoxa-4,10,16,22-tetrazacyclotetracosane-2,5,8,11,14,17,20,23-octaone]	0.0001 to 0.001 µM	1 to 10 µM
CC(C)C[C@H]1C(=O)O[C@H](Cc2ccc(Cn3ccnc3Br)cc2)C(=O)N(C)[C@@H](CC(C)C)C(=O)O[C@H](C)C(=O)N(C)[C@@H](CC(C)C)C(=O)O[C@H](Cc2ccc(Cn3ccnc3Br)cc2)C(=O)N(C)[C@@H](CC(C)C)C(=O)O[C@H](C)C(=O)N1C [Example 6-3, (3S,6R,9S,12R,15S,18R,21S,24R)-6,18-bis[[4-[(2-bromoimidazol-1-yl)methyl]phenyl]methyl]-3,9,15,21-tetraisobutyl-4,10,12,16,22,24-hexamethyl-1,7,13,19-tetraoxa-4,10,16,22-tetrazacyclotetracosane-2,5,8,11,14,17,20,23-octaone]	≤ 0.0001 µM	1 to 10 µM
CC(C)C[C@H]1C(=O)O[C@H](Cc2ccc(Cn3ccnc3Cl)cc2)C(=O)N(C)[C@@H](CC(C)C)C(=O)O[C@H](C)C(=O)N(C)[C@@H](CC(C)C)C(=O)O[C@H](Cc2ccc(Cn3ccnc3Cl)cc2)C(=O)N(C)[C@@H](CC(C)C)C(=O)O[C@H](C)C(=O)N1C [Example 6-9, (3S,6R,9S,12R,15S,18R,21S,24R)-6,18-bis(4-((2-chloro-1H-imidazol-1-yl)methyl)benzyl)-3,9,15,21-tetraisobutyl-4,10,12,16,22,24-hexamethyl-1,7,13,19-tetraoxa-4,10,16,22-tetraazacyclotetracosan-2,5,8,11,14,17,20,23-octaone]	≤ 0.0001 µM	1 to 10 µM
CC(C)C[C@H]1C(=O)O[C@H](Cc2ccc(Cn3ccnc3Cl)cc2)C(=O)N(C)[C@@H](CC(C)C)C(=O)O[C@H](C)C(=O)N(C)[C@@H](CC(C)C)C(=O)O[C@H](Cc2ccccc2)C(=O)N(C)[C@@H](CC(C)C)C(=O)O[C@H](C)C(=O)N1C [Example 8-9, (3S,6R,9S,12R,15S,18R,21S,24R)-6-benzyl-18-(4-((2-chloro-1H-imidazol-1-yl)methyl)benzyl)-3,9,15,21-tetraisobutyl-4,10,12,16,22,24-hexamethyl-1,7,13,19-tetraoxa-4,10,16,22-tetraazacyclotetracosan-2,5,8,11,14,17,20,23-octaone]	0.0001 to 0.001 µM	1 to 10 µM
CC(C)C[C@H]1C(=O)O[C@H](Cc2ccc(Cn3c(C#N)ccc3C#N)cc2)C(=O)N(C)[C@@H](CC(C)C)C(=O)O[C@H](C)C(=O)N(C)[C@@H](CC(C)C)C(=O)O[C@H](Cc2ccc(Cn3c(C#N)ccc3C#N)cc2)C(=O)N(C)[C@@H](CC(C)C)C(=O)O[C@H](C)C(=O)N1C [Example 9-12, 1,1′-(((((2R,5S,8R,11S,14R,17S,20R,23S)-5,11,17,23-tetraisobutyl-4,8,10,16,20,22-hexamethyl-3,6,9,12,15,18,21,24-octaoxo-1,7,13,19-tetraoxa-4,10,16,22-tetraazacyclotetracosane-2,14-diyl)bis(methylene))bis(4,1-phenylene))bis(methylene))bis(1H-pyrrole-2,5-dicarbonitrile)]	≤ 0.0001 µM	≤ 1 µM
CC(C)C[C@H]1C(=O)O[C@H](Cc2ccc(Cn3cccc3C#N)cc2)C(=O)N(C)[C@@H](CC(C)C)C(=O)O[C@H](C)C(=O)N(C)[C@@H](CC(C)C)C(=O)O[C@H](Cc2ccc(Cn3cccc3C#N)cc2)C(=O)N(C)[C@@H](CC(C)C)C(=O)O[C@H](C)C(=O)N1C [Example 9-16, 1-[[4-[[(2R,5S,8R,11S,14R,17S,20R,23S)-14-[[4-[(2-cyanopyrrol-1-yl)methyl]phenyl]methyl]-5,11,17,23-tetraisobutyl-4,8,10,16,20,22-hexamethyl-3,6,9,12,15,18,21,24-octaoxo-1,7,13,19-tetraoxa-4,10,16,22-tetrazacyclotetracos-2-yl]methyl]phenyl]methyl]pyrrole-2-carbonitrile]	≤ 0.0001 µM	≤ 1 µM
CC(C)C[C@H]1C(=O)O[C@H](Cc2ccc(Cn3cccc3C(N)=O)cc2)C(=O)N(C)[C@@H](CC(C)C)C(=O)O[C@H](C)C(=O)N(C)[C@@H](CC(C)C)C(=O)O[C@H](Cc2ccc(Cn3cccc3C(N)=O)cc2)C(=O)N(C)[C@@H](CC(C)C)C(=O)O[C@H](C)C(=O)N1C [Example 9-32, 1-[[4-[[(2R,5S,8R,11 S,14R,17S,20R,23S)-14-[[4-[(2-carbamoylpyrrol-1-yl)methyl]phenyl]methyl]-5,11,17,23-tetraisobutyl-4,8,10,16,20,22-hexamethyl-3,6,9,12,15,18,21,24-octaoxo-1,7,13,19-tetraoxa-4,10,16,22-tetrazacyclotetracos-2-yl]methyl]phenyl]methyl]pyrrole-2-carboxamide]	0.0001 to 0.001 µM	≤ 1 µM
